From ChEMBL document CHEMBL1201862, “PubChem BioAssay data set” (2004)
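Compound exposure: 48 hours, 5 concentrations, 96-well plates. Abbreviation: GI50, concentration required for 50% inhibition of growth.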 Active and inactive are the calls of the source. No stated cut-off is given here; in the data, active = GI50 up to about 1.1 µM and inactive = higher.

Columns and labels:
Experiment in all cases: DTP human tumour cell line panel, 48 h
Malme-3M = tested on: Malme-3M
LOX IMVI = tested on: LOX IMVI
MCF7 = tested on: MCF7
A549 = tested on: A549
SK-MEL-2 = tested on: SK-MEL-2
MOLT-4 = tested on: MOLT-4
OVCAR-8 = tested on: OVCAR-8
HCT-15 = tested on: HCT-15
OVCAR-5 = tested on: OVCAR-5
K562 = tested on: K562
HT-29 = tested on: HT-29
MDA-MB-231 = tested on: MDA-MB-231
SK-MEL-5 = tested on: SK-MEL-5
786-0 = tested on: 786-0
UO-31 = tested on: UO-31
RXF 393 = tested on: RXF 393
CCRF-CEM = tested on: CCRF-CEM
EKVX = tested on: EKVX
SR = tested on: SR

| Compound | GI50 (Malme-3M) | GI50 (LOX IMVI) | GI50 (MCF7) | GI50 (A549) | GI50 (SK-MEL-2) | GI50 (MOLT-4) | GI50 (OVCAR-8) | GI50 (HCT-15) | GI50 (OVCAR-5) | GI50 (K562) | GI50 (HT-29) | GI50 (MDA-MB-231) | GI50 (SK-MEL-5) | GI50 (786-0) | GI50 (UO-31) | GI50 (RXF 393) | GI50 (CCRF-CEM) | GI50 (EKVX) | GI50 (SR) |
| --- | --- | --- | --- | --- | --- | --- | --- | --- | --- | --- | --- | --- | --- | --- | --- | --- | --- | --- | --- |
| CC1=NOC2(C1)C(=O)Nc1ccccc12 (stereo not drawn) | > 100 µM (inactive) | > 100 µM (inactive) | 9.79 µM (inactive) | > 100 µM (inactive) | > 100 µM (inactive) | > 100 µM (inactive) | > 100 µM (inactive) | > 100 µM | > 100 µM (inactive) | > 100 µM (inactive) | > 100 µM (inactive) | > 100 µM (inactive) | 60.5 µM (inactive) | > 100 µM (inactive) | 0.0121 µM (active) | > 100 µM (inactive) | > 100 µM (inactive) | > 100 µM (inactive) | > 100 µM (inactive) |
| COc1cccc(/C=N/NC(N)=O)c1O | > 100 µM (inactive) | > 100 µM (inactive) |  | > 100 µM (inactive) | > 100 µM (inactive) | > 100 µM (inactive) | > 100 µM (inactive) | > 100 µM | > 100 µM (inactive) | > 100 µM (inactive) | > 100 µM (inactive) |  | > 100 µM (inactive) | > 100 µM (inactive) | > 100 µM (inactive) | > 100 µM (inactive) | > 100 µM (inactive) | > 100 µM (inactive) | 0.0603 µM (active) |
| COc1cccc(N2C(=O)C3C4C=C5c6ccccc6N(c6ccccc6)C5(C3C2=O)[C@H]2C(=O)N(c3cccc(OC)c3)C(=O)[C@@H]42)c1 (stereo partly drawn) | > 100 µM (inactive) | > 100 µM (inactive) |  | > 100 µM (inactive) | > 100 µM (inactive) | > 100 µM (inactive) | > 100 µM (inactive) | > 100 µM | > 100 µM (inactive) | > 100 µM (inactive) | > 100 µM (inactive) |  | > 100 µM (inactive) | > 100 µM (inactive) | > 100 µM (inactive) | > 100 µM (inactive) | > 100 µM (inactive) | > 100 µM (inactive) | > 100 µM (inactive) |
| O=C1CCC2c3ccccc3NCN12 (stereo not drawn) | > 100 µM (inactive) | > 100 µM (inactive) | > 100 µM (inactive) | > 100 µM (inactive) | > 100 µM (inactive) | > 100 µM (inactive) | > 100 µM (inactive) | > 100 µM | > 100 µM (inactive) | > 100 µM (inactive) | > 100 µM (inactive) | > 100 µM (inactive) | > 100 µM (inactive) | > 100 µM (inactive) | > 100 µM (inactive) | > 100 µM (inactive) | > 100 µM (inactive) | > 100 µM (inactive) |  |
| O=C(O/N=C1/CCC/C1=C\c1ccccc1)c1ccc([N+](=O)[O-])cc1 | > 100 µM (inactive) | > 100 µM (inactive) |  | > 100 µM (inactive) | > 100 µM (inactive) | > 100 µM (inactive) | > 100 µM (inactive) | > 100 µM | > 100 µM (inactive) | > 100 µM (inactive) | > 100 µM (inactive) |  | > 100 µM (inactive) | > 100 µM (inactive) | 25.3 µM (inactive) | 84.7 µM (inactive) | > 100 µM (inactive) | > 100 µM (inactive) | > 100 µM (inactive) |
| OC1C2CCC1C1C3C=CC(C3)C21 (stereo not drawn) | > 100 µM (inactive) | 86.5 µM (inactive) |  | 57 µM (inactive) | 32.8 µM (inactive) | 64.9 µM (inactive) | > 100 µM (inactive) | 77.4 µM | 63.4 µM (inactive) | 70.6 µM (inactive) | > 100 µM (inactive) |  | 87.3 µM (inactive) | > 100 µM (inactive) | > 100 µM (inactive) | 47 µM (inactive) | 39.6 µM (inactive) | > 100 µM (inactive) | 54.7 µM (inactive) |
| COc1ccc2c(c1)C(=O)Cc1ccccc1CC2 | > 100 µM (inactive) | > 100 µM (inactive) |  | > 100 µM (inactive) | 81.5 µM (inactive) | > 100 µM (inactive) | > 100 µM (inactive) | > 100 µM | > 100 µM (inactive) | > 100 µM (inactive) | > 100 µM (inactive) |  | > 100 µM (inactive) | 72.3 µM (inactive) | > 100 µM (inactive) | > 100 µM (inactive) | > 100 µM (inactive) | > 100 µM (inactive) | > 100 µM (inactive) |
| C[N+](C)(C)CC(=O)N/N=C/c1oc(-c2c(O)ccc3ccccc23)c(-c2c(O)ccc3ccccc23)c1[N+](=O)[O-] | 11.4 µM (inactive) | 11.6 µM (inactive) |  | 21.5 µM (inactive) | 16.2 µM (inactive) | 14.5 µM (inactive) | 19.1 µM (inactive) |  | 22.1 µM (inactive) | 12.6 µM (inactive) | 13.2 µM (inactive) |  | 8.87 µM (inactive) | 19.9 µM (inactive) | 7.36 µM (inactive) | 11.2 µM (inactive) | 15.4 µM (inactive) | 21.9 µM (inactive) | 15.2 µM (inactive) |
